Measurements as given in US12679825B2, “Crystalline and amorphous forms of a δ-opioid modulator” (Trevena, Inc., priority 2020, dated 2026).
“Also recorded” adds a separate entry of the source. Where two headings read alike, the source gives them in different places.

How the values were obtained:
Format in all cases: physicochemical
[1] = Spectrometric (UV-metric) pKa; settings: base; aqueous value by Yasuda-Shedlovsky extrapolation from methanol-water co-solvent; 25.0±0.2° C.; 0.15 M KCl
Description: (§1) Crystalline forms of the compound of Formula I, including the crystalline Form I, were analyzed using pKa and LogP. An automated titrator system with an incorporated UV-Vis spectrometer (SiriusT3™, Pion Inc.) was used to acquire the spectrometric and potentiometric data. The optical system consisted of a photodiode array detector with a deuterium lamp and a fiber optic dip probe.
(§2) The titrator module consisted of a temperature controller (by Peltier device with in-situ thermocouple), pH electrode, an overhead stirrer, and motorized dispensers for the automatic delivery of assay titrants and reagents via capillaries. The instrumentation was operated using SiriusT3Control software (V2.0). Data processing and generation of the reported pKa and logP values was carried out using SiriusT3Refine software (V2.0). The titrants used were 0.5 M hydrochloric acid and 0.5 M potassium hydroxide, standardized using potassium hydrogen phthalate. ACS or HPLC grade methanol cosolvent was used for pKa determination. Spectrophotometric experiments were carried out in the presence of a mid-range buffer solution (15 mM di-potassium hydrogen orthophosphate) or Neutral Linear Buffer™ to prevent uncontrolled pH-drift at mid-range pH. For logP assays, ACS or HPLC grade 1-octanol was used as the partition solvent.
All experiments were carried out at a controlled temperature of 25.0±0.2° C. […]

[2] = Potentiometric (pH-metric) pKa; settings: pH 2.0-12.0, methanol-water co-solvent, Yasuda-Shedlovsky extrapolation
Description: as §1
as §2, with “Spectrophotometric experiments were carried out in the presence of a mid-range buffer solution (15 mM di-potassium hydrogen orthophosphate) or Neutral Linear Buffer™ to prevent uncontrolled pH-drift at mid-range pH. For logP assays, ACS or HPLC grade 1-octanol was used as the partition solvent.” left out
An additional potentiometric assay was carried out to confirm the pKa. […] The aqueous pKa was extrapolated from the apparent pKa measured in the presence of co-solvents, using the Yasuda-Shedlovsky extrapolation equation. […]

[3] = 14-day stability testing (XRPD, HPLC, appearance); parameters: key to XRPD after storage: CRY: Crystalline; settings: 14 days; for Post-Storage Observations (appearance): input White solid (NE12); for 14-Day Stability, Solid Purity after storage: open vial, input 98.9% area
Description: Crystalline forms of the compound of Formula I, including the crystalline Form I, were analyzed regarding stability. Approximately 10 mg of free base Form I was subjected to 14-day stability testing under the following conditions to assess developability: • 40° C./75% RH (open vial); • Ambient light, temperature and humidity conditions (open vial).
After 2 weeks under the specified conditions, XRPD and HPLC analysis was carried out on the resultant solid material. The sample appearance was monitored over 14 days.

[4] = Potentiometric (pH-metric) LogP and logD profile; settings: for logP: 25.0±0.2° C.
Description: as §1, §2
All experiments were carried out at a controlled temperature of 25.0±0.2° C. The pH range of titration assays is set between pH 2.0 to pH 12.0 unless otherwise stated. Prior to use, 0.5 M KOH base titrant is standardized by the titration of approximately 15 mg of potassium hydrogen phthalate, in triplicate. 0.5 M HCl titrant is subsequently standardized against the base titrant. The assay media for pKa determination is kept at a constant ionic strength of 0.15 M KCl and under argon atmosphere.
0.79 mg of sample was weighed into a 5 mL glass assay vial and titrated in a pH-metric triple titration in the presence of octanol from pH 2.0-12.0 at concentrations of 1.5-0.5 mM. The partition ratios of octanol/water were 0.012:1, 0.038:1 and 0.517:1. LogP was determined by comparing the pKa in water with the apparent pKa in the presence of octanol. The pH-metric logP experiment was conducted at 25.0±0.2° C. A lipophilicity profile (logD vs. pH) of the compound was calculated from the experimentally determined pKa and logP. The logD values are detailed in Table 12.

With `COCCOc1cccc([C@@H]2CCN(CCn3cccc3)[C@H](C)[C@H]2COc2ccc3c(c2)C(=O)NC3)c1` [crystalline Form I, (−)-6-{[(trans, trans)-4-[3-(2-methoxyethoxy)phenyl]-2-methyl-1-[2-(1H-pyrrol-1-yl)ethyl]piperidin-3-yl]methoxy}-2,3-dihydro-1H-isoindol-1-one] the pKa [1] was 7.74 ± 0.04, the “Potentiometric (pH-metric) pKa” value [2] was “confirmed the spectrometric pKa” and the “Decrease in purity after storage (HPLC)” value ([3]; 40° C./75% RH and ambient conditions) was ≤ 0.3 % area. For the same compound, the “14-Day Stability, form by XRPD” value ([3]; 40° C./75% RH) was “retained; also recorded: Form I”, the XRPD after storage ([3]; 40° C./75% RH) was “CRY” and the “Post-Storage Observations (appearance)” value ([3]; 40° C./75% RH) was “White solid (NE12)”. For the same compound, the “14-Day Stability, Solid Purity after storage” value ([3]; 40° C./75% RH) was 99.0 % area, the “14-Day Stability, Solid Purity after storage” value ([3]; Ambient light, temperature and humidity) was 98.6 % area and the “14-Day Stability, form by XRPD” value ([3]; Ambient) was “retained; also recorded: Form I”. For the same compound, the XRPD after storage ([3]; Ambient) was “CRY”, the “Post-Storage Observations (appearance)” value ([3]; Ambient) was “White solid (NE12)” and the logD ([4]; 1-octanol/water, pH 5.000) was 1.2. The logP ([4]; octanol/water, read-out: LogP (Potentiometric), cationic species) was 0.6 ± 0.03, the logP ([4]; octanol/water, read-out: LogP (Potentiometric), neutral species) was 3.81 ± 0.02 and the logD ([4]; octanol/water, pH 1.2, pH 1.200, Stomach pH) was 0.6. The logD ([4]; octanol/water, pH 6.5, pH 6.500) was 2.55, the logD ([4]; octanol/water, pH 7.4, pH 7.400, Blood pH) was 3.31 and the logD ([4]; octanol/water, pH 1.000) was 0.6. For the same compound, the logD ([4]; octanol/water, pH 3.000) was 0.61, the logD ([4]; octanol/water, pH 4.000) was 0.71 and the logD ([4]; octanol/water, pH 6.000) was 2.08. The logD ([4]; octanol/water, pH 7.000) was 3, the logD ([4]; octanol/water, pH 8.000) was 3.62 and the logD ([4]; octanol/water, pH 9.000) was 3.79. For the same compound, the logD ([4]; octanol/water, pH 10.000) was 3.81, the logD ([4]; octanol/water, pH 11.000) was 3.81 and the logD ([4]; octanol/water, pH 12.000) was 3.81.
